Source: patent publication US7622479B2, “Bicyclic derivative, its production and use” (Takeda Pharmaceutical Company Limited, priority 2001, dated 2009)
Marks after values point to notes of the source that are not given here.

Test system: normal human cell fibroblast MRC-5
Test: Cell proliferation suppression test, normal cells MRC-5 (SRB staining)
Format: cell-based
Conditions: MRC5, MRC-5 normal fibroblasts, incubated for 3 or 5 days, SRB protein staining, absorbance 550 nm, read-out: Cell proliferation inhibition (IC50; μM) MRC-5
Method: (§1) 100 μl of a suspension of HER2-expressing SK-BR-3 human breast cancer cells or 100 μl of BT-474 (2,000 cells) or 100 μl (4,000 cells) of a suspension of normal human cell fibroblast MRC-5 was sown in a 96-well microplate and cultured at 37° C. in a 5% carbonic acid gas incubator. On the following day, 100 μl of a solution of the test compound which had previously been diluted 2-fold, was added and the mixture was incubated for 3 or 5 days. The cells were fixed and washed with 5% glutaraldehyde solution and further fixed with 10% trichloroacetic acid solution, after which a 0.4% (W/V) SRB 0.4% (W/V) solution (dissolved in 1% acetic acid) was added to stain the cell protein. After the pigment solution was removed and the plate was washed with 1% acetic acid solution, 100 μl of extract (10 mM tris buffer solution) was added to extract the pigment; absorbance was measured at an absorption wavelength of 550 nm to quantify the amount of cells as protein content.
(§2) Taking the absorbance for the control group, which received no test compound solution, as 100% the ratio of the absorbance for each treatment group was determined, and the compound concentration required to achieve 50% suppression of the residual cell content relative to the control (IC50 value) was calculated.

Row | Compound | IC50
1 | COc1cccc(-c2nc3cc(-c4ccccc4)cnc3[nH]2)c1 [Example 1, 2-(3-methoxyphenyl)-6-phenyl-1H-imidazo[4,5-b]pyridine] | > 25 µM
2 | COc1ccc(Cc2nc3cc(-c4ccco4)cnc3[nH]2)cc1OC [Example 97, 2-(3,4-dimethoxybenzyl)-6-(2-furyl)-1H-imidazo[4,5-b]pyridine] | > 25 µM
3 | Clc1ccc(Cc2nc3cc(-c4ccco4)cnc3[nH]2)cc1 [Example 113, 2-(4-chlorobenzyl)-6-(2-furyl)-1H-imidazo[4,5-b]pyridine] | ≥ 25 µM
4 | COc1cccc(-c2nc3ncc(-c4ccccc4)cc3n2Cc2ccccc2O)c1 [Example 157, 2-[[2-(3-methoxyphenyl)-6-phenyl-1H-imidazo[4,5-b]pyridin-1-yl]methyl]phenol] | > 25 µM
5 | COc1cccc(-c2nc3ncc(-c4ccccc4)cc3n2CC2CC2)c1 [Example 202, 1-(cyclopropylmethyl)-2-(3-methoxyphenyl)-6-phenyl-1H-imidazo[4,5-b]pyridine] | 21 µM
6 | Fc1ccc(/C=C/c2nc3cc(-c4ccco4)ccc3o2)c(F)c1 [Example 219, 2-[(E)-2-(2,4-difluorophenyl)ethenyl]-5-(2-furyl)benzoxazole] | > 25 µM

Test system: BT-474 human breast cancer cells
Test: Cell proliferation suppression test, BT-474 (SRB staining)
Format: cell-based
Conditions: BT-474 cells, incubated for 3 or 5 days, SRB protein staining, absorbance 550 nm, read-out: Cell proliferation inhibition (IC50; μM) BT-474
Method: as §1, §2

Row | Compound | IC50
7 | COc1ccc(Cc2nc3cc(-c4ccco4)cnc3[nH]2)cc1OC [Example 97, 2-(3,4-dimethoxybenzyl)-6-(2-furyl)-1H-imidazo[4,5-b]pyridine] | 0.49 µM
8 | COc1cccc(-c2nc3ncc(-c4ccccc4)cc3n2Cc2ccccc2O)c1 [Example 157, 2-[[2-(3-methoxyphenyl)-6-phenyl-1H-imidazo[4,5-b]pyridin-1-yl]methyl]phenol] | 0.19 µM
9 | Fc1ccc(/C=C/c2nc3cc(-c4ccco4)ccc3o2)c(F)c1 [Example 219, 2-[(E)-2-(2,4-difluorophenyl)ethenyl]-5-(2-furyl)benzoxazole] | 0.83 µM

Other lines, results leading:

Row | IC50 | Compound
10 | 0.28 µM | COc1cccc(-c2nc3cc(-c4ccccc4)cnc3[nH]2)c1 [Example 1, 2-(3-methoxyphenyl)-6-phenyl-1H-imidazo[4,5-b]pyridine]
11 | 0.25 µM | Clc1ccc(Cc2nc3cc(-c4ccco4)cnc3[nH]2)cc1 [Example 113, 2-(4-chlorobenzyl)-6-(2-furyl)-1H-imidazo[4,5-b]pyridine]
12 | 1.1 µM | COc1cccc(-c2nc3ncc(-c4ccccc4)cc3n2CC2CC2)c1 [Example 202, 1-(cyclopropylmethyl)-2-(3-methoxyphenyl)-6-phenyl-1H-imidazo[4,5-b]pyridine]

Test system: HER2-expressing SK-BR-3 human breast cancer cells
Test: Cell proliferation suppression test, SK-BR-3 (SRB staining)
Format: cell-based
Conditions: SK-BR-3 cells, incubated for 3 or 5 days, SRB protein staining, absorbance 550 nm, read-out: Cell proliferation inhibition (IC50; μM) SK-BR-3
Method: as §1, §2

Row | Compound | IC50
13 | COc1ccc(Cc2nc3cc(-c4ccco4)cnc3[nH]2)cc1OC [Example 97, 2-(3,4-dimethoxybenzyl)-6-(2-furyl)-1H-imidazo[4,5-b]pyridine] | 0.94 µM
14 | COc1cccc(-c2nc3ncc(-c4ccccc4)cc3n2Cc2ccccc2O)c1 [Example 157, 2-[[2-(3-methoxyphenyl)-6-phenyl-1H-imidazo[4,5-b]pyridin-1-yl]methyl]phenol] | 0.23 µM
15 | Fc1ccc(/C=C/c2nc3cc(-c4ccco4)ccc3o2)c(F)c1 [Example 219, 2-[(E)-2-(2,4-difluorophenyl)ethenyl]-5-(2-furyl)benzoxazole] | 0.14 µM

More lines, now with the values ahead:

Row | IC50 | Compound
16 | 0.12 µM | COc1cccc(-c2nc3cc(-c4ccccc4)cnc3[nH]2)c1 [Example 1, 2-(3-methoxyphenyl)-6-phenyl-1H-imidazo[4,5-b]pyridine]
17 | 0.22 µM | Clc1ccc(Cc2nc3cc(-c4ccco4)cnc3[nH]2)cc1 [Example 113, 2-(4-chlorobenzyl)-6-(2-furyl)-1H-imidazo[4,5-b]pyridine]
18 | 0.55 µM | COc1cccc(-c2nc3ncc(-c4ccccc4)cc3n2CC2CC2)c1 [Example 202, 1-(cyclopropylmethyl)-2-(3-methoxyphenyl)-6-phenyl-1H-imidazo[4,5-b]pyridine]

Test system: BT-474 human cancer cells
Test: Antitumor test in nude mouse model implanted with human cancer cells
Format: in vivo
Conditions: 3 mg/kg orally, twice each day, for 14 days; nude BALB/c female mouse, BT-474 subcutaneous; tumor volume change vs Gelucire control
Method: 1×10^7 BT-474 human cancer cells were suspended in Matrigel solution, and the suspension was subcutaneously transplanted to a nude BALB/c female mouse (5 weeks old). In order to enhance the take ratio of the tumor, an estrogen preparation was intramuscularly administered to a hind leg at plantation and 7 days after transplantation.
A Gelucire solution (0.3 or 1 mg/ml) of the compound of the present invention was orally administered at a dosage of 10 ml/kg, twice each day, for 14 days. During the first day and the last day that the administration was carried out, the tumor diameter was measured, and the tumor volume was calculated using the formula: tumor volume=major axis x minor axis x minor axis x(1/2). The T/C (%) was calculated as the ratio of the value obtained by subtracting the tumor volume on the last day of administration from the tumor volume on the first day of administration for the control group (to which only Gelucire was administered) and the value obtained by subtracting the tumor volume on the last day of administration from the tumor volume on the first day of administration for the treatment group.

Row | Compound | T/C(%) 3 mg/kg
19 | COc1cccc(-c2nc3cc(-c4ccccc4)cnc3[nH]2)c1 [Example 1, 2-(3-methoxyphenyl)-6-phenyl-1H-imidazo[4,5-b]pyridine] | 58* %

Same assay, conditions: 10 mg/kg orally, twice each day, for 14 days; nude BALB/c female mouse, BT-474 subcutaneous; tumor volume change vs Gelucire control

Row | Compound | T/C(%) 10 mg/kg
20 | COc1cccc(-c2nc3cc(-c4ccccc4)cnc3[nH]2)c1 [Example 1, 2-(3-methoxyphenyl)-6-phenyl-1H-imidazo[4,5-b]pyridine] | 31** %
